Laboratory results: patent publication US11970474B2, “Substituted benzodiazoles and use thereof in therapy” (THOMAS HELLEDAYS STIFTELSE FÖR MEDICINSK FORSKNING, priority 2018, dated 2024)
pEC50, pIC50: −log10 of the molar value.

Experiments:
[1] = biological target: OGG1 (Homo sapiens (Human), UniProt O15527); experiment: In vitro OGG1 activity assay; format: biochemical; settings: 800 pM OGG1 enzyme, 2 nM human APEX1, 10 nM 8-oxoA:C substrate
Method in brief: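 Fluorescence-release assay on a duplex oligonucleotide carrying an OGG1 substrate base beside a fluorophore, quenched from the complementary strand. Excess APEX1 cleaves the abasic site left by base excision, melting the duplex and unquenching the fluorophore. Compounds in DMSO were dispensed before enzyme and substrate, and fluorescein signal was read.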

[2] = test system: MLE12 cells; experiment: Cell viability assay in MLE12 cells (resazurin); format: cell-based, mouse; settings: Mus musculus, MLE12, 24 h, TNF-α 20 ng/ml, resazurin added after 24 hours culture
Method: (§1) Stock solutions (10 mM in DMSO) of compounds were dispensed in V-bottom 384-well plates and the following dilutions were prepared: 10 mM and 0.05 mM. The dilutions were transferred to the source plate. Duplicate 6 points dose-response curves of compounds were nano-dispensed in cell plates (CCL2 assay) and in parallel, 11 points DR curves in duplicates were nano-dispensed for the viability assay. The plates were heat sealed and kept at RT until use.
(§2) MLE12 cells in flasks were washed once with PBS, detached with Trypsin/EDTA, resuspended in fresh medium and counted. Cells were diluted to 3×10^5 cells/ml and seeded with Multidrop Combi in cell plates pre-dispensed with compounds, 25 μl/well (7500 cells/well). The plates were placed, one by one, in a CO2-incubator at 37° C. for 1 hour after which 25 μl/well of TNF-α (final concentration 20 ng/ml) were added. The plates were transferred back to the CO2-incubator placed in a plastic box with wet tissue in the bottom, to avoid evaporation, for 30 hours.
After 24 hours culture, resazurin reagent (stock 1 mg/ml in PBS) diluted 1:17 in PBS was added with Multidrop Combi, 10 μl/well, and plates were incubated for 6 hours. Plates were read in Sense plate reader with resorufin protocol (ex544 nm/em595 nm). The results were imported to an excel template where the EC50 values were calculated using XLfit.

[3] = test system: CCL2; experiment: Mouse CCL2 assay in MLE12 cells; format: cell-based; settings: Mus musculus, MLE12, 30 h, MLE12 cells; TNF-α 20 ng/ml; supernatant after 30 hours; HTRF; read-out: CCL2 (EC50)
Description: Cisbio mouse CCL2 assay is intended for the quantitative measurement of CCL2 in supernatant using HTRF® technology. The assay is compatible with mouse samples, and is highly specific for CCL2. CCL2 is detected in a sandwich assay format using 2 different specific antibodies, one labeled with Cryptate (donor) and the second with d2 (acceptor). The detection principle is based on HTRF® technology. When the labelled antibodies bind to the same antigen, the excitation of the donor with a light source (laser or flash lamp) triggers a Fluorescence Resonance Energy Transfer (FRET) towards the acceptor, which in turn fluoresces at a specific wavelength (665 nm). The two antibodies bind to the CCL2 present in the sample, thereby generating FRET. Signal intensity is proportional to the number of antigen-antibody complexes formed and therefore to the CCL2 concentration. • Materials: • Cells: MLE12 (Mouse Lung Epithelial cells, SV40 transformed) • Medium: DMEM/F12 (Gibco #11330057), FBS 5% (Gibco #10500064), Pen/Strep 50 U/50 μg/ml (Gibco #15070063) • Cell plates: 384-well, black/clear, TC-treated (Corning #3764) • Source plate: Labcyte LDV 384 (Labcyte #LP-0200) • Compound dilution plate: V-bottom 384-well PP plate (Greiner #781280) • Compounds: 10 mM stocks in DMSO • HTRF plates: 384-well, white, half area, non-binding (Costar #3824) • Mouse CCL2 kit: Cisbio 62MCCL2PEH • Other reagents: Trypsin/EDTA 10× (Gibco #15400054), PBS (Gibco #14190169), Resazurin (Sigma-Aldrich #199303), 1 mg/ml in PBS, TNF-α 200 μg/ml in PBS (Peprotech #300-01A) • Instruments: • Echo liquid handler (Labcyte) • Multidrop Combi (Thermo Scientific) • Sense plate reader (Hidex) Compound Handling:
as §1, §2
After 30 hours incubation, the plates were spun down 5 minutes at 400 g, and 16 μl/well of the supernatants were transferred to the assay plate. A mCCL2 standard curve was prepared according to the kit protocol and 16 μl/well of the standards were also added to the assay plate.
The anti-CCL2 antibody mix was prepared according to the kit protocol, and 4 μl/well were added to the assay plate. The plate was sealed and incubated over night at RT. After incubation the plate was read in Sense plate reader with Time-resolved FRET protocol (Ex330 nm/Em 620 and 665 nm). After data reduction, the delta ratios were imported to an excel template where the IC50 values were calculated.

OGG1, sequence (O15527 whole entry): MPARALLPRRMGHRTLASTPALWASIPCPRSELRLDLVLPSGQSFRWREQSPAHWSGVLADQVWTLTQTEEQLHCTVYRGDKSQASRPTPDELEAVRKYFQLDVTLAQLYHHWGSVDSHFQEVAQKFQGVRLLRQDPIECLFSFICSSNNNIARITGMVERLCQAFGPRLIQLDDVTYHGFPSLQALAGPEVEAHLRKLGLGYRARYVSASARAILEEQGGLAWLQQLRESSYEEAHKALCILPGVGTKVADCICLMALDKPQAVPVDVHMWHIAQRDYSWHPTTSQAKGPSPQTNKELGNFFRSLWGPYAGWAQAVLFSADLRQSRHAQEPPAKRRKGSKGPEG

Row | Compound | pIC50 [1] | pIC50 [2] | pEC50 [3]
1 | COc1cc(NC(=O)[C@H]2CC[C@@H](n3c(=O)[nH]c4cc(C#N)ccc43)CC2)ccc1C [Example 238, Cis-4-(5-cyano-2-oxo-2,3-dihydro-1H-1,3-benzodiazol-1-yl)-N-(3-methoxy-4-methylphenyl)cyclohexane-1-carboxamide] | 7.39 | 5.04 | 4.57
2 | COCC(=O)Nc1cccc2c1[nH]c(=O)n2[C@H]1CC[C@@H](C(=O)Nc2ccc(C)c(OC)c2)CC1 [Example 250, Cis-N-(3-methoxy-4-methylphenyl)-4-[4-(2-methoxyacetamido)-2-oxo-2,3-dihydro-1H-1,3-benzodiazol-1-yl]cyclohexane-1-carboxamide] | 7.63 | 4.59 | 4.40
3 | COc1ccc(NC(=O)[C@H]2CC[C@@H](n3c(=O)[nH]c4c(Br)cccc43)CC2)c(F)c1F [Example 154, (Cis)-4-(4-bromo-2-oxo-2,3-dihydro-1H-1,3-benzodiazol-1-yl)-N-(2,3-difluoro-4-methoxyphenyl)cyclohexane-1-carboxamide] | 6.42 | 4.79 | 4.28
4 | COc1ccc(NC(=O)[C@H]2CC[C@@H](n3c(=O)[nH]c4c(Br)cccc43)CC2)cc1 [Example 140, (Cis)-4-(4-bromo-2-oxo-2,3-dihydro-1H-1,3-benzodiazol-1-yl)-N-(4-methoxyphenyl)cyclohexane-1-carboxamide] | 7.60 | 4.75 | 4.46
5 | COc1cc(NC(=O)[C@H]2CC[C@@H](n3c(=O)[nH]c4c(NCCN(C)C)cccc43)CC2)ccc1C [Example 280, Cis-4-(4-{[2-(dimethylamino)ethyl]amino}-2-oxo-2,3-dihydro-1H-1,3-benzodiazol-1-yl)-N-(3-methoxy-4-methylphenyl)cyclohexane-1-carboxamide] | 7.56 | 4.78 | 4.61
6 | COc1cc(NC(=O)[C@H]2CC[C@@H](n3c(=O)[nH]c4c(N(C)C5CCN(C)C5)cccc43)CC2)ccc1C (stereo partly drawn) [Example 296, Cis-N-(3-Methoxy-4-methylphenyl)-4-{4-[methyl(1-methylpyrrolidin-3-yl)amino]-2-oxo-2,3-dihydro-1H-1,3-benzodiazol-1-yl}cyclohexane-1-carboxamide] | 7.54 | 4.87 | 4.98
7 | COc1cc(NC(=O)[C@H]2CC[C@@H](n3c(=O)[nH]c4c(NC(=O)c5cc[nH]n5)cccc43)CC2)ccc1C [Example 299, N-{2-Oxo-1-[cis-4-[(3-methoxy-4-methylphenyl)carbamoyl]cyclohexyl]-2,3-dihydro-1H-1,3-benzodiazol-4-yl}-1H-pyrazole-3-carboxamide] | 7.57 | 4.99 | 4.50
8 | CNCCN(C)c1cccc2c1[nH]c(=O)n2[C@H]1CC[C@@H](C(=O)Nc2ccc(C)c(OC)c2)CC1 [Example 297, Cis-N-(3-methoxy-4-methylphenyl)-4-(4-{methyl[2-(methylamino)ethyl]amino}-2-oxo-2,3-dihydro-1H-1,3-benzodiazol-1-yl)cyclohexane-1-carboxamide] | 8.09 | 4.54 | 4.51
9 | Cn1c(NC(=O)[C@H]2CC[C@@H](n3c(=O)[nH]c4c(Br)cccc43)CC2)nc2ccccc21 [Example 257, Cis-4-(4-bromo-2-oxo-2,3-dihydro-1H-1,3-benzodiazol-1-yl)-N-(1-methyl-1H-1,3-benzodiazol-2-yl)cyclohexane-1-carboxamide] | 7.57 | 4.70 | 4.46
10 | Cc1cc(NC(=O)[C@H]2CC[C@@H](n3c(=O)[nH]c4c(Br)cccc43)CC2)ccc1Cl [Example 152, (Cis)-4-(4-bromo-2-oxo-2,3-dihydro-1H-1,3-benzodiazol-1-yl)-N-(4-chloro-3-methylphenyl)cyclohexane-1-carboxamide] | 7.13 | 5.21 | 4.81
11 | O=c1[nH]c2c(Br)cccc2n1[C@H]1CC[C@@H](C(=O)Nc2ccc(O)cc2)CC1 [Example 191, Cis-4-(4-bromo-2-oxo-2,3-dihydro-1H-1,3-benzodiazol-1-yl)-N-(4-hydroxyphenyl)cyclohexane-1-carboxamide] | 7.25 | 4.53 | 4.47
12 | COc1cc(NC(=O)[C@H]2CC[C@@H](n3c(=O)[nH]c4c(C(=O)NCc5ncc[nH]5)cccc43)CC2)ccc1C [Example 270, N-[(1H-Imidazol-2-yl)methyl]-2-oxo-1-[cis-4-[(3-methoxy-4-methylphenyl)carbamoyl]cyclohexyl]-2,3-dihydro-1H-1,3-benzodiazole-4-carboxamide] | 9.41 | 4.78 | 4.48
13 | COc1cc(NC(=O)N2CCC(n3c(=O)[nH]c4c(-c5ccc(CO)nc5)cccc43)CC2)ccc1Cl [Example 83, N-(4-Chloro-3-methoxyphenyl)-4-{4-[6-(hydroxymethyl)pyridin-3-yl]-2-oxo-2,3-dihydro-1H-1,3-benzodiazol-1-yl}piperidine-1-carboxamide] | 6.02 | 4.85 | 4.46
14 | COc1cc(NC(=O)[C@H]2CC[C@@H](n3c(=O)[nH]c4c(C(=O)N5CCC[C@H]5CN5CCCC5)cccc43)CC2)ccc1C [Example 271, Cis-N-(3-methoxy-4-methylphenyl)-4-{2-oxo-4-[(2S)-2-[(pyrrolidin-1-yl)methyl]pyrrolidine-1-carbonyl]-2,3-dihydro-1H-1,3-benzodiazol-1-yl}cyclohexane-1-carboxamide] | 7.25 | 5.33 | 5.02
15 | COc1cc(NC(=O)[C@H]2CC[C@@H](n3c(=O)[nH]c4ccccc43)CC2)ccc1C [Example 226, Cis-N-(3-methoxy-4-methylphenyl)-4-(2-oxo-2,3-dihydro-1H-1,3-benzodiazol-1-yl)cyclohexane-1-carboxamide] | 7.11 | 4.77 | 4.47
16 | COc1cc(NC(=O)[C@H]2CC[C@@H](n3c(=O)[nH]c4c(N(C)CCCN)cccc43)CC2)ccc1C [Example 302, Cis-4-{4-[(3-aminopropyl)(methyl)amino]-2-oxo-2,3-dihydro-1H-1,3-benzodiazol-1-yl}-N-(3-methoxy-4-methylphenyl)cyclohexane-1-carboxamide] | 7.79 | 4.84 | 4.57
17 | COc1cc(NC(=O)[C@H]2CC[C@@H](n3c(=O)[nH]c4c(NC(=O)C5CNCCO5)cccc43)CC2)ccc1C (stereo partly drawn) [Example 289, N-{2-Oxo-1-[cis-4-[(3-methoxy-4-methylphenyl)carbamoyl]cyclohexyl]-2,3-dihydro-1H-1,3-benzodiazol-4-yl}morpholine-2-carboxamide] | 7.29 | 4.61 | 4.49
18 | COc1cc(NC(=O)[C@H]2CC[C@@H](n3c(=O)[nH]c4c(Br)cccc43)CC2)ccc1Cl [Example 122, (Cis)-4-(4-bromo-2-oxo-2,3-dihydro-1H-1,3-benzodiazol-1-yl)-N-(4-chloro-3-methoxyphenyl)cyclohexane-1-carboxamide] | 7.15 | 5.35 | 4.85
